Laboratory results taken from US20090054326A1 (NASTECH PHARMACEUTICAL COMPANY INC., priority 2005, published 2009).

How the values were obtained:
aminopeptidases = conditions: cited from earlier work
[1] = tested on: normal, human-derived tracheal/bronchial epithelial cells (EpiAirway Tissue Model); experiment: Transepithelial electrical resistance (TER) in EpiAirway tissue model; assay type: cell-based; conditions: after one hour exposure at 37° C.; Examples 1-4
Description: Samples were evaluated in an in vitro tissue model. […] Inserts were feed for each day of recovery.
TER measurements were accomplished using the Endohm-12 Tissue Resistance Measurement Chamber connected to the EVOM Epithelial Voltohmmeter (World Precision Instruments, Sarasota, Fla.) with the electrode leads. The electrodes and a tissue culture blank insert were equilibrated for at least 20 minutes in MatTek medium with the power off prior to check calibration. The background resistance was measured with 1.5 ml Media in the Endohm tissue chamber and 300 μl Media in the blank insert. The top electrode was adjusted so that it was close to, but not making contact with, the top surface of the insert membrane. Background resistance of the blank insert was about 5-20 ohms. For each TER determination, 300 μl of MatTek medium was added to the insert followed by placement in the Endom chamber. Resistance was expressed as (resistance measured−blank)×0.6 cm^2.

With `CC(C)CC(N)B(O)O` (stereo not drawn) [boro-leucine] as the compound, how does the “more effective in enzyme inhibition than bestatin” value (aminopeptidases; relative to bestatin) read?
Its value is “more than 100 times”.

And the “more effective in enzyme inhibition than puromycin” value (aminopeptidases; relative to puromycin)?
The value was “more than 1000 times”.

For Triton X, which “change in TER” value [1] is on record?
Its value is “essentially a complete reduction in TER”.
